Legend:
EGFR = target: T1, EGFR (Homo sapiens, UniProt P00533); assay: RTK-Assay (ELISA, chemiluminescence); format: biochemical
T1 construct: GST (N); purchased Biomol
Experimental: (§1) To determine the IC50 of receptor-tyrosine-kinase an assay based on the ELISA-principle using kinases from Biomol (N-terminally fused to GST), POD-coupled antibody from Calbiochem (PY20) and BM chemiluminescence ELISA substrate from Roche was followed.
(§2) In short, a white 96 wells microplate was incubated overnight with 100 µl/well of the substrate solution (poly-Glu-Tyr diluted with PBS to 100 µg/ml) at 4 °C. The solution was removed and the plate was washed twice for 2 min with PBS-T. Afterwards the kinase solution (50 µl/well)( KDR (VEGFR2), 5 ng; Flt4 (VEGFR3), 20 ng; EGFR, 5 ng; IGFR, 15 ng; FGFR, 10 ng and Tie2, 20 ng) and the inhibitor solution (25 µl/well) were added to each well. To perform positive and negative control, 5% aqueous DMSO (25 µl/well) were used instead of inhibitor solution. Addition of ATP solution (25 µl/well) started the reaction, whereas 40 mM MnCl2 solution (25 µl/well) was added to the negative control instead of ATP. After incubation under mild shaking conditions for 30 min at rt the plate was washed with PBS-T (3 x 2 min) and subsequently incubated with antibody solution (anti-Phosphotyrosine-antibody (POD-coupled) diluted 1:10.000 in PBS-T + 0,2% (m/v) BSA)(100 µl/well) for 1 h again while shaking. In the end the plate was washed with PBS-T (3x5 min) and provided with the chemiluminescence substrate (50 µl/well). After 3 min the occurring luminescence was measured using a luminometer. A positive control was measured without inhibitor to determine the activity of the kinase, a negative control without inhibitor and ATP to abstract the background signal from the results. For determination of IC50 values, the relative luminescence units per second (RLU/s) were blotted against the inhibitor concentrations. In doing so each concentration measurement was done triplicate and at least 5 different inhibitor concentrations were used to determine IC50 value.
(§3) This assay is based on the ELISA-principle using kinases from Biomol (N-terminally fused to GST), POD-coupled antibody from Calbiochem (PY20) and BM chemiluminescence ELISA substrate from Roche.
(§4) Each well of a 96 well microplate (white, flat bottom, Greiner, Lumitrac600) was covered with a kinase polypeptide substrate containing glutamate and tyrosine. The substrate was incubated with a kinase, a defined inhibitor concentration and ATP. After kinase inhibitor depending phosphorylation of the substrate a POD-coupled antibody was added that selectively binds to phosphorylated tyrosine. Finally, a chemiluminescence reagent was added and light emission measured using an Orion Microplate Luminometer (Berthold).
(§5) The detected counts correlate directly with the amount of phosphorylated tyrosine and indirectly with the activity of the inhibitor.
(§6) A positive control was measured without inhibitor to determine the activity of the kinase, a negative control without inhibitor and ATP to abstract the background signal from the results. For determination of IC50 values, the relative luminescence units per second (RLU/s) were blotted against the inhibitor concentrations. In doing so each concentration measurement was done triplicate and at least 5 different inhibitor concentrations were used to determine IC50 value.
(§7) The following solutions were prepared for the receptor-tyrosine-kinase assay: - PBS (10x) 1 g KCl, 1 g KH2PO4, 40 g NaCl, 13.2 g Na2HPO4, ad 1 l H2O - PBST (1x) PBS 10x + 0,5% Tween20 → diluted 1:10 - substrate poly-Glu-Tyr 4:1 (10mg/ml in PBS) → diluted with PBS to 100µg/ml - kinase buffer 100mM HEPES, 100mM NaCl, 0.1mM Na3VO4 - kinase solution kinase buffer, kinase stock solution diluted to reach the following concentration defined in the table Table "kinase dilution" […]

Flt-4 (VEGFR3) = target: T2, Flt-4 (VEGFR3) (Homo sapiens, UniProt P35916); assay: RTK-Assay (ELISA, chemiluminescence); format: biochemical; settings: read-out: IC50 Flt-4 (VEGFR 3)
T2 construct: GST (N); purchased Biomol
T2 sequence (P35916 25-1363, species assumed): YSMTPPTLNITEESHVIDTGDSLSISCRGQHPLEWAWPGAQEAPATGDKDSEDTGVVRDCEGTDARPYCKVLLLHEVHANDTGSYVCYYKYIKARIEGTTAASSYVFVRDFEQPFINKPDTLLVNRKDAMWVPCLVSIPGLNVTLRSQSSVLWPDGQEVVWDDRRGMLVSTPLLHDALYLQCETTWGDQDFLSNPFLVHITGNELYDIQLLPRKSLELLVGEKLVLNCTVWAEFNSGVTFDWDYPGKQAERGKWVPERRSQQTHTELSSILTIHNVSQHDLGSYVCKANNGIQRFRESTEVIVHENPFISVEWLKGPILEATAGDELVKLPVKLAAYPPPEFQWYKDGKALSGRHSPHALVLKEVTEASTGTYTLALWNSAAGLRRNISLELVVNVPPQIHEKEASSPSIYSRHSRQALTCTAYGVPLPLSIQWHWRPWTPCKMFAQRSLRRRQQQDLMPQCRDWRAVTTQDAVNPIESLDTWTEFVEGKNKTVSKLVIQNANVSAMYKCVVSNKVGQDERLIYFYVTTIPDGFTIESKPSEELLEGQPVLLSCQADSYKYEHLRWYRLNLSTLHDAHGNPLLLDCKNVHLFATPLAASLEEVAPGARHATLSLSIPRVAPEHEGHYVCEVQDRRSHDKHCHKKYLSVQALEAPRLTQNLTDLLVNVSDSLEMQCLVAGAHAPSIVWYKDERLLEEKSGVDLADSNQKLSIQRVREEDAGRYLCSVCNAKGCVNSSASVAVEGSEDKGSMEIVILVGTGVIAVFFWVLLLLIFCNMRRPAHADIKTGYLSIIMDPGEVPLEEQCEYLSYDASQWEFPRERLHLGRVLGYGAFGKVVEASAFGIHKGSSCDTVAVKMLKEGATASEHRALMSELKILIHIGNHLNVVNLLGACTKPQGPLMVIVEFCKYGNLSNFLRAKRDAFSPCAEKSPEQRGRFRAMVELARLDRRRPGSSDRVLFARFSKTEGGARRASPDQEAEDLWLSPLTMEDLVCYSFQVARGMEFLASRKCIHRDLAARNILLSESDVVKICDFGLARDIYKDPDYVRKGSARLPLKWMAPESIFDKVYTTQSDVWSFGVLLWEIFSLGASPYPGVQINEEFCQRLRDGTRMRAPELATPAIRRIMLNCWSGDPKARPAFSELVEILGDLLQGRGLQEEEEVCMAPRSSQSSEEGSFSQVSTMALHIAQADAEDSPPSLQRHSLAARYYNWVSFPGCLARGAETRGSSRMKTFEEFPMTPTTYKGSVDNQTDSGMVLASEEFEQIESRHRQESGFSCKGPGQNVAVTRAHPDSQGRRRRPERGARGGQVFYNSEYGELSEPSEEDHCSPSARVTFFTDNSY
Experimental: as §1, §2, §3, §4, §5, §6, §7

IGFR = target: T3, IGFR (Homo sapiens, UniProt P08069); assay: RTK-Assay (ELISA, chemiluminescence); format: biochemical
T3 construct: GST (N); purchased Biomol
T3 sequence (P08069 31-1367): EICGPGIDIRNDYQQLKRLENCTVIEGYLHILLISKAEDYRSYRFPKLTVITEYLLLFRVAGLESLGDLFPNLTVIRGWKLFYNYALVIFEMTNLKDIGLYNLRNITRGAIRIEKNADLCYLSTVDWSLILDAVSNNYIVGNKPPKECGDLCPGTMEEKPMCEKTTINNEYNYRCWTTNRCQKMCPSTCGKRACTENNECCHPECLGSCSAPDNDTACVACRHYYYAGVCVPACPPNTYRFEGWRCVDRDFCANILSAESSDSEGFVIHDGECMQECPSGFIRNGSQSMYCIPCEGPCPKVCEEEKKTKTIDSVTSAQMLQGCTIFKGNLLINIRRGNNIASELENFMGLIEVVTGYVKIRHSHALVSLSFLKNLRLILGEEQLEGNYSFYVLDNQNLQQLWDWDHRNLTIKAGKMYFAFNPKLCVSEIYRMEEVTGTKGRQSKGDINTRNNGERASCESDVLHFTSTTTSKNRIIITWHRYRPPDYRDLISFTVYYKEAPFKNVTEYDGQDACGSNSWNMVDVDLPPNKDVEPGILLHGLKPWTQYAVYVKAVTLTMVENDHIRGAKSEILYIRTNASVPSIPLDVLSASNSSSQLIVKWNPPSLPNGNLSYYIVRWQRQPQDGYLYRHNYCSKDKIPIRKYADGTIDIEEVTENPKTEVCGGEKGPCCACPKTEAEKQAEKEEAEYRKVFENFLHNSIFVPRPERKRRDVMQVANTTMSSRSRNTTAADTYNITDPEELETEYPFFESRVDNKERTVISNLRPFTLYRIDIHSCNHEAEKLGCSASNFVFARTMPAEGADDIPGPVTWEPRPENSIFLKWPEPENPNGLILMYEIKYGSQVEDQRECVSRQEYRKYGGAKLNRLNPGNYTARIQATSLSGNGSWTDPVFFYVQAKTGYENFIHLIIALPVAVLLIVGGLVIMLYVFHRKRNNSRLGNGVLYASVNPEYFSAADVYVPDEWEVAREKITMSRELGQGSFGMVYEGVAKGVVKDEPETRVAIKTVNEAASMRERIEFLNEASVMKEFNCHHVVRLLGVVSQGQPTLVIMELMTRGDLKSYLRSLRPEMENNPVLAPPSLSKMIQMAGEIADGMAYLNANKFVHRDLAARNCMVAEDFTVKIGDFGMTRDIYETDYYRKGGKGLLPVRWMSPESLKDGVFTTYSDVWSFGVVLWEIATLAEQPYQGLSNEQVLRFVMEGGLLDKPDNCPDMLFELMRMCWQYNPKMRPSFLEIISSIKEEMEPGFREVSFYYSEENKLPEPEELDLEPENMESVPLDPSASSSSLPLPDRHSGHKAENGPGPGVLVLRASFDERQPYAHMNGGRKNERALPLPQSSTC
Experimental: as §1, §2, §3, §4, §5, §6, §7

Tie2 = target: T4, Tie2 (Homo sapiens, UniProt Q02763); assay: RTK-Assay (ELISA, chemiluminescence); format: biochemical; settings: read-out: IC50 Tie-2
T4 construct: GST (N); purchased Biomol
T4 sequence (Q02763 23-1124, species assumed): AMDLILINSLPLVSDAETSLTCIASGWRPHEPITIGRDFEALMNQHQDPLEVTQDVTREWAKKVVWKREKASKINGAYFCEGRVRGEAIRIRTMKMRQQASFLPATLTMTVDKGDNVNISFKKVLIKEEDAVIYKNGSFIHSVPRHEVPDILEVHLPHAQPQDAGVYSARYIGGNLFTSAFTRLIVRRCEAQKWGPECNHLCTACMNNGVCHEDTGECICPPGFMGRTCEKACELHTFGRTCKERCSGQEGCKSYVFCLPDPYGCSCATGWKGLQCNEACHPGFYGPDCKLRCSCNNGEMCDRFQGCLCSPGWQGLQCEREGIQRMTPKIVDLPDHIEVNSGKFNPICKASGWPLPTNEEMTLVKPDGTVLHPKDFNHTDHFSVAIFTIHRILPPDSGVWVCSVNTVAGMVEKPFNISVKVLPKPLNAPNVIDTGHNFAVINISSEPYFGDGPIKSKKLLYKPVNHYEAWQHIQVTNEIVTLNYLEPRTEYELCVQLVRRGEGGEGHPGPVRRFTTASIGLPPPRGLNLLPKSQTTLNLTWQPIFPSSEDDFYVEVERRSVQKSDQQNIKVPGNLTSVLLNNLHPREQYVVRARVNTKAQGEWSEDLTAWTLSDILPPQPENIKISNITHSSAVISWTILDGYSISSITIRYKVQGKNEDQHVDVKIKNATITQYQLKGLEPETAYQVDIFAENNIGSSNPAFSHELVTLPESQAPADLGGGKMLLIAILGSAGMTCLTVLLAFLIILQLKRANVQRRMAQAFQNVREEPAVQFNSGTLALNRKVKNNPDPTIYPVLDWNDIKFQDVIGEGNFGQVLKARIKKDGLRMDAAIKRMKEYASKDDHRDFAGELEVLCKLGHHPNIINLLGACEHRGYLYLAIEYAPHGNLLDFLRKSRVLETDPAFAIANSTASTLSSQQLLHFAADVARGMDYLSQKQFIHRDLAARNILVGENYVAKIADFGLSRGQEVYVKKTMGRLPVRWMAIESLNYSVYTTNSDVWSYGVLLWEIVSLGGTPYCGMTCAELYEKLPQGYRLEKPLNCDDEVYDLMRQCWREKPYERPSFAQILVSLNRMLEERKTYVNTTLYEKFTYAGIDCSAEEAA
Experimental: as §1, §2, §3, §4, §5, §6, §7

FGFR = assay: RTK-Assay (ELISA, chemiluminescence); format: biochemical
Experimental: as §1
as §2, with “A positive control was measured without inhibitor to determine the activity of the kinase, a negative control without inhibitor and ATP to abstract the background signal from the results.” left out
This assay is based on the ELISA-principle using kinases from Biomol (N-terminally fused to GST), POD-coupled antibody from Calbiochem (PY20) and BM chemiluminescence ELISA substrate from Roche. […]
For determination of IC50 values, the relative luminescence units per second (RLU/s) were blotted against the inhibitor concentrations. […]

[1] = test system: histone H3 phosphorylation on Ser 10; assay: Western Blot analysis of histone H3 phosphorylation in mitotic cells; format: cell-based, human; settings: mitotic HeLa cells synchronized with nocodazole, treated 20 h, any of the concentrations tested
Experimental: For Western Blot analysis of HH3 phosphorylation levels in mitosis HeLa cells were arrested with 2 mM thymidine for 18 h, released into fresh medium for 6 h, and blocked with 2 µM nocodazole for 16 h. DMSO or the different compounds were added 1 h after thymidine release. Mitotic cells were shaken off and lysed in 50 mM Tris pH 6,8- 2% SDS. Samples were sonicated and boiled. 30 µg protein extract (as determined by Bradford assay, Bio-Rad protein assay) was loaded on SDS-PAGE, transferred to a nitrocellulose membrane and blotted with anti-phospho HH3 (Upstate), anti-Aurora A and anti-tubulin antibodies (Sigma, DM1A).

T1 sequence (P00533 25-1210, species assumed): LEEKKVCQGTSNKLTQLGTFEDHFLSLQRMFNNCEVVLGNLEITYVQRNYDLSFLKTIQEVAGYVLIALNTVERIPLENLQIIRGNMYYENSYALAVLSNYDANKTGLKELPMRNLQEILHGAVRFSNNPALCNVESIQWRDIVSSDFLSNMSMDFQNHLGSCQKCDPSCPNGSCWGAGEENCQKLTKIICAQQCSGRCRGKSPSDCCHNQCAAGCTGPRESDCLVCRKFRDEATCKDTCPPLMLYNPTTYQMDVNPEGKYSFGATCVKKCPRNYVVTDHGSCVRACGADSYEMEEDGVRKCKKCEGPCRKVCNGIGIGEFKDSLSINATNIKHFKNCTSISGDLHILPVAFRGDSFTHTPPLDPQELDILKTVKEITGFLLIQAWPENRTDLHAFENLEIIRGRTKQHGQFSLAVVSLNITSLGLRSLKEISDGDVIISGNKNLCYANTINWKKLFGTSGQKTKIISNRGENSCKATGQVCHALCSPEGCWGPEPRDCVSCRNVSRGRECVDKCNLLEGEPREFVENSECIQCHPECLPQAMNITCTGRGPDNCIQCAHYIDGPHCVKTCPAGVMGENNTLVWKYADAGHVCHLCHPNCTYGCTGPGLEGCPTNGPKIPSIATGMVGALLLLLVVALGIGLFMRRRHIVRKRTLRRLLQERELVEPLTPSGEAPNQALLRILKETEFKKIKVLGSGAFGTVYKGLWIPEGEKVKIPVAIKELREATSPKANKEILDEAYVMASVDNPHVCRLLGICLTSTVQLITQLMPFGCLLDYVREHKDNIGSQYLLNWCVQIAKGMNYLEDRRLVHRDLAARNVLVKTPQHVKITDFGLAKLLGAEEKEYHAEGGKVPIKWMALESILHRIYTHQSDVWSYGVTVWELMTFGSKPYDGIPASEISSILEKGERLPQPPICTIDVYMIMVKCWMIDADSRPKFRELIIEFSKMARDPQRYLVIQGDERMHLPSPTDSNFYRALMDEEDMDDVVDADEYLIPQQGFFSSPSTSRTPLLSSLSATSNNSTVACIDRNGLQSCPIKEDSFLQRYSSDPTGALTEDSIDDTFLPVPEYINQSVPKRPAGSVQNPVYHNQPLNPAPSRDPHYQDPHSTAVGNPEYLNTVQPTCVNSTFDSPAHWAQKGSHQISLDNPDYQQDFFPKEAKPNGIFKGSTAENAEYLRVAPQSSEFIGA

Compound	IC50 (EGFR)	IC50 (Flt-4 (VEGFR3))	IC50 (IGFR)	IC50 (Tie2)	IC50 (FGFR)	HH3-Ser10 phosphorylation [1]
CC(C)Nc1nc(-c2ccco2)nc2ccc(/C=C/C(C)(C)O)cc12 [Compound (A), (E)-4-(2-(Furan-2-yl)-4-(isopropylamino)quinazolin-6-yl)-2-methylbut-3-en-2-ol]	> 100 µM	4.24 µM	41.5 µM	> 100 µM	> 100 µM	no effect
CC(C)Nc1nc(-c2ccco2)nc2ccc(C#CCO)cc12 [Compound (C), 3-(2-(Furan-2-yl)-4-(isoiproipylamino)quinazolin-6-yl)prop-2-yn-l-ol]	> 100 µM	> 100 µM	> 100 µM	> 100 µM	> 100 µM	no effect
